Measured values from US10435399B2, “HDAC6 inhibitory heterocyclic compound” (TAKEDA PHARMACEUTICAL COMPANY LIMITED, priority 2017, dated 2019).

Target: T1, HDAC6 enzyme (Homo sapiens, UniProt Q9UBN7)
T1 construct: transducing full length HDAC6 gene into Sf-9 insect cells; GST; purchased SignalChem; host or cells: Sf-9 insect cells
T1 sequence (Q9UBN7 1-1215): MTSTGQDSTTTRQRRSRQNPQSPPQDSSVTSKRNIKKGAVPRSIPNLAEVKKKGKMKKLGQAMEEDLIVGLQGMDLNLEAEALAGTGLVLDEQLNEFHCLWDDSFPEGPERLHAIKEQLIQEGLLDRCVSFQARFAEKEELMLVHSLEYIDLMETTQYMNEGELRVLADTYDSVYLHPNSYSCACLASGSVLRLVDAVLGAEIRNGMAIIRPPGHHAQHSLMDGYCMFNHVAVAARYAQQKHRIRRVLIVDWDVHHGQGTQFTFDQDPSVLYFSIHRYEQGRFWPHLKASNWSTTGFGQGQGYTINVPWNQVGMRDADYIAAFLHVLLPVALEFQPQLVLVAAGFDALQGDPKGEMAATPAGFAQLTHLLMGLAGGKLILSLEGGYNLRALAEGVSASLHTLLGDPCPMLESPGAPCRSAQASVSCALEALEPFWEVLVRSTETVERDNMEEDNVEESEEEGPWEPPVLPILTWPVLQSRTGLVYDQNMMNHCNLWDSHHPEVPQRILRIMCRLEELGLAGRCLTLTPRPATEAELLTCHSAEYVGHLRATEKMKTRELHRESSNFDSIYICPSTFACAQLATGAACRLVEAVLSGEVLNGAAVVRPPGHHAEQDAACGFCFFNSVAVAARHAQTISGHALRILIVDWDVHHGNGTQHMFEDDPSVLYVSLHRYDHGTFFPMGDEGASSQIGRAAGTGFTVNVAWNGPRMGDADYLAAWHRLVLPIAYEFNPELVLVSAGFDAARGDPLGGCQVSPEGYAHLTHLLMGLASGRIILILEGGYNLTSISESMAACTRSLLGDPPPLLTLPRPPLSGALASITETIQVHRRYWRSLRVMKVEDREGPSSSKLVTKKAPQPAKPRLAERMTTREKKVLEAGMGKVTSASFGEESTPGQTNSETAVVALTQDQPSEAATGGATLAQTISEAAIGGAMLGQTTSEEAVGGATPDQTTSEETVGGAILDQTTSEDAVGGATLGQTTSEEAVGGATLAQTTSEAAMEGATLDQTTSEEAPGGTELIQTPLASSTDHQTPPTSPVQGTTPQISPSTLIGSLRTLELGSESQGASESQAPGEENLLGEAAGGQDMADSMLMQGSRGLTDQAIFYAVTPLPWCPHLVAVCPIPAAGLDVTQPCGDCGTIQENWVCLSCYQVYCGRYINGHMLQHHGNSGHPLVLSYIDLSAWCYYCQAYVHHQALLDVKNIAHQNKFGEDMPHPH
Assay: HDAC6 enzyme inhibitory activity (HDAC-Glo I/II Assay kit)
Assay type: biochemical
Details: 10 μM; wells without enzyme = 100% inhibition; read-out: HDAC6 inhibitory rate (%) (10 μM)
How it was run: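 Inhibition is calculated as relative activity, taking luminescence in enzyme-free wells as complete inhibition. The enzyme, full-length and GST-purified after Sf-9 expression, was exposed to compound for 60 min at room temperature before a 20 min HDAC-Glo reaction.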

SMILES | inhibition at 10 µM [%]
O=C1c2cc(-c3nnc(C(F)F)o3)cnc2CN1Cc1ccccc1OC(F)F [Example 358, 6-(2-(difluoromethoxy)-benzyl)-3-(5-(difluoro-methyl)-1,3,4-oxadiazol-2-yl)-6,7-dihydro-5H-pyrrolo-[3,4-b]pyridin-5-one] | 102
O=C1c2cc(-c3nnc(C(F)F)o3)cnc2CN1Cc1cccnc1 [Example 359, 3-(5-(difluoromethyl)-1,3,4-oxadiazol-2-yl)-6-(pyridin-3-ylmethyl)-6,7-dihydro-5H-pyrrolo[3,4-b]pyridin-5-one] | 97
O=C1c2cc(-c3nnc(C(F)F)o3)cc(F)c2CN1[C@@H]1CCOC[C@H]1NCC(F)(F)F [Example 360, 6-(5-(difluoromethyl)-1,3,4-oxadiazol-2-yl)-4-fluoro-2-((3S,4R)-3-((2,2,2-trifluoro-ethyl)amino)tetrahydro-2H-pyran-4-yl)isoindolin-1-one] | 103
O=C1c2cc(-c3nnc(C(F)F)o3)cc(F)c2CN1[C@@H]1COCC[C@H]1NCC(F)(F)F [Example 361, 6-(5-(difluoromethyl)-1,3,4-oxadiazol-2-yl)-4-fluoro-2-((3S,4R)-4-((2,2,2-trifluoro-ethyl)amino)tetrahydro-2H-pyran-3-yl)isoindolin-1-one] | 101
O=C1c2cc(-c3nnc(C(F)F)o3)cnc2CN1Cc1ccccn1 [Example 362, 3-(5-(difluoromethyl)-1,3,4-oxadiazol-2-yl)-6-(pyridin-2-yl-methyl)-6,7-dihydro-5H-pyrrolo[3,4-b]pyridin-5-one] | 99
CC(C)(C)OC(=O)N[C@H]1COCC[C@H]1N1Cc2c(F)cc(-c3nnc(C(F)F)o3)cc2C1=O [Example 363, tert-butyl ((3R,4R)-4-(6-(5-(difluoromethyl)-1,3,4-oxadiazol-2-yl)-4-fluoro-1-oxo-1,3-dihydro-2H-isoindol-2-yl)tetrahydro-2H-pyran-3-yl)carbamate] | 99
N[C@H]1COCC[C@H]1N1Cc2c(F)cc(-c3nnc(C(F)F)o3)cc2C1=O [Example 364, 2-((3R,4R)-3-amino-tetrahydro-2H-pyran-4-yl)-6-(5-(difluoromethyl)-1,3,4-oxadiazol-2-yl)-4-fluoroisoindolin-1-one] | 87
O=C1c2cc(-c3nnc(C(F)F)o3)cc(F)c2CN1[C@@H]1CCOC[C@@H]1NC(=O)C(F)(F)C(F)(F)F [Example 365, N-((3R,4R)-4-(6-(5-(difluoromethyl)-1,3,4-oxadiazol-2-yl)-4-fluoro-1-oxo-1,3-dihydro-2H-isoindol-2-yl)tetrahydro-2H-pyran-3-yl)-2,2,3,3,3-pentafluoropropanamide] | 101
CC(F)(F)C(=O)N[C@H]1COCC[C@H]1N1Cc2c(F)cc(-c3nnc(C(F)F)o3)cc2C1=O [Example 366, N-((3R,4R)-4-(6-(5-(difluoromethyl)-1,3,4-oxadiazol-2-yl)-4-fluoro-1-oxo-1,3-dihydro-2H-isoindol-2-yl)tetrahydro-2H-pyran-3-yl)-2,2-difluoropropanamide] | 97
O=C1c2cc(-c3nnc(C(F)F)o3)cnc2CN1[C@@H]1CCCC[C@H]1NCC(F)(F)F [Example 367, 3-(5-(difluoromethyl)-1,3,4-oxadiazol-2-yl)-6-((1R,2R)-2-((2,2,2-trifluoroethyl)amino)-cyclohexyl)-6,7-dihydro-5H-pyrrolo[3,4-b]pyridin-5-one] | 101
Cn1cc(-c2cccc(C#N)c2)c(N2Cc3ccc(-c4nnc(C(F)F)o4)cc3C2=O)n1 [Example 368, 3-(3-(6-(5-(difluoromethyl)-1,3,4-oxadiazol-2-yl)-1-oxo-1,3-dihydro-2H-isoindol-2-yl)-1-methyl-1H-pyrazol-4-yl)benzonitrile] | 99

Further lines, results first:

inhibition at 10 µM [%] | SMILES
99 | Cn1cc(-c2cccc(Cl)c2)c(N2Cc3ccc(-c4nnc(C(F)F)o4)cc3C2=O)n1 [Example 369, 2-(4-(3-chlorophenyl)-1-methyl-1H-pyrazol-3-yl)-6-(5-(difluoro-methyl)-1,3,4-oxadiazol-2-yl)isoindolin-1-one]
101 | O=C1c2cc(-c3nnc(C(F)F)o3)cnc2CN1Cc1cccc(C(F)F)c1 [Example 370, 6-(3-(difluoromethyl)benzyl)-3-(5-(difluoro-methyl)-1,3,4-oxadiazol-2-yl)-6,7-dihydro-5H-pyrrolo[3,4-b]pyridin-5-one]
99 | O=C1c2cc(-c3nnc(C(F)F)o3)cc(F)c2CN1C1(CNS(=O)(=O)CC(F)(F)F)CCCCC1 [Example 371, N-((1-(6-(5-(difluoro-methyl)-1,3,4-oxadiazol-2-yl)-4-fluoro-1-oxo-1,3-dihydro-2H-isoindol-2-yl)cyclohexyl)methyl)-2,2,2-trifluoroethane-sulfonamide]
92 | O=C1c2cc(-c3nnc(C(F)F)o3)cc(F)c2CN1c1ccccc1Br [Example 372, 2-(2-bromophenyl)-6-(5-(difluoromethyl)-1,3,4-oxadiazol-2-yl)-4-fluoroisoindolin-1-one]
97 | O=C1c2cc(-c3nnc(C(F)F)o3)ccc2CN1c1cccc(F)c1Br [Example 373, 2-(2-bromo-3-fluorophenyl)-6-(5-(difluoromethyl)-1,3,4-oxadiazol-2-yl)isoindolin-1-one]
99 | O=C1c2cc(-c3nnc(C(F)F)o3)cc(F)c2CN1[C@@H]1CCOC[C@@H]1NCC(F)(F)F [Example 374, 6-(5-(difluoromethyl)-1,3,4-oxadiazol-2-yl)-4-fluoro-2-((3R,4R)-3-((2,2,2-trifluoroethyl)amino)tetrahydro-2H-pyran-4-yl)isoindolin-1-one]
101 | O=C1c2cc(-c3nnc(C(F)F)o3)cc(F)c2CN1[C@@H]1CCOC[C@@H]1NCC(F)(F)C(F)(F)F [Example 375, 6-(5-(difluoromethyl)-1,3,4-oxadiazol-2-yl)-4-fluoro-2-((3R,4R)-3-((2,2,3,3,3-pentafluoropropyl)amino)tetrahydro-2H-pyran-4-yl)isoindolin-1-one]
101 | N#Cc1cccc(-c2ccccc2N2Cc3c(F)cc(-c4nnc(C(F)F)o4)cc3C2=O)c1 [Example 376, 2′-(6-(5-(difluoro-methyl)-1,3,4-oxadiazol-2-yl)-4-fluoro-1-oxo-1,3-dihydro-2H-isoindol-2-yl)biphenyl-3-carbonitrile]
101 | N#Cc1cccc(-c2c(F)cccc2N2Cc3ccc(-c4nnc(C(F)F)o4)cc3C2=O)c1 [Example 377, 2′-(6-(5-(difluoro-methyl)-1,3,4-oxadiazol-2-yl)-1-oxo-1,3-dihydro-2H-isoindol-2-yl)-6′-fluorobiphenyl-3-carbonitrile]
99 | N#Cc1cccc(-c2cc(F)ccc2N2Cc3c(F)cc(-c4nnc(C(F)F)o4)cc3C2=O)c1 [Example 378, 2′-(6-(5-(difluoro-methyl)-1,3,4-oxadiazol-2-yl)-4-fluoro-1-oxo-1,3-dihydro-2H-isoindol-2-yl)-5′-fluorobiphenyl-3-carbonitrile]
97 | O=C1c2cc(-c3nnc(C(F)F)o3)cc(F)c2CN1C[C@@H]1CCCN1C(=O)C1CC1 [Example 379, 2-(((2S)-1-(cyclopropyl-carbonyl)pyrrolidin-2-yl)methyl)-6-(5-(difluoromethyl)-1,3,4-oxadiazol-2-yl)-4-fluoro-isoindolin-1-one]
99 | O=C1c2cc(-c3nnc(C(F)F)o3)cc(F)c2CN1C[C@@H]1CCCN1S(=O)(=O)CC(F)(F)F [Example 380, 6-(5-(difluoro-methyl)-1,3,4-oxadiazol-2-yl)-4-fluoro-2-(((2S)-1-((2,2,2-trifluoroethyl)sulfonyl)pyrrolidin-2-yl)methyl) isoindolin-1-one]
100 | O=C1c2cc(-c3nnc(C(F)F)o3)cc(F)c2CN1c1ccc(F)cc1-c1cnn(C(F)F)c1 [Example 381, 6-(5-(difluoro-methyl)-1,3,4-oxadiazol-2-yl)-2-(2-(1-(difluoro-methyl)-1H-pyrazol-4-yl)-4-fluorophenyl)-4-fluoroisoindolin-1-one]
